Source: patent US11407725B2 (The Board of Trustees of the University of Illinois, priority 2018, dated 2022)

Target: T1, ALDH1A3 (Homo sapiens, UniProt P47895)
T1 construct: made in house
T1 sequence (P47895 1-512): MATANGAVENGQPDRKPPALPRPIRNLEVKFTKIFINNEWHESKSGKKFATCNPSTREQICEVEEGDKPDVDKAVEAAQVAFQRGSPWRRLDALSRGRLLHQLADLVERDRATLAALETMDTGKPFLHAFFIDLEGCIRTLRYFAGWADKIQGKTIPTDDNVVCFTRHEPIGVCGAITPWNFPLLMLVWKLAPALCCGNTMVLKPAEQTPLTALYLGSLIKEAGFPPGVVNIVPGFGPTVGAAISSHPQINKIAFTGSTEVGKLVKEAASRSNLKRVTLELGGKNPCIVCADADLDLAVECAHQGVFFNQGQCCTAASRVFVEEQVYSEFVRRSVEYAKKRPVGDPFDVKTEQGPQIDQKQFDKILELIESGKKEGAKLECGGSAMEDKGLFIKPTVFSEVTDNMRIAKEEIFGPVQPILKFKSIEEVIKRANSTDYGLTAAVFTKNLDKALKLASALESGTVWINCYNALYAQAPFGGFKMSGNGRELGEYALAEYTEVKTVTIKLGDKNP
Experiment: ALDH isoform selectivity of red probes: ALDH1A3
Assay type: biochemical
Protocol: Each ALDH isoform was added to a 50 mM triethanolamine solution (pH 7.4) containing 2.0 mM NAD^+ and 100 μM substrate at room temperature. Benzaldehyde was the substrate for ALDH3A1. Propanal was the substrate for all other isoforms. ALDH isoform activity was determined by monitoring the rate of NADH production through the increase in absorbance at 340 nm (ε=6220 M^−1cm^−1). For these assays, 1 unit is defined as the amount of enzyme that catalyzes the conversion of […] per minute. For every combination of dye and enzyme, 2 μM dye was preincubated with 2.0 mM NAD^+ in 50 mM triethanolamine solution (pH 7.4). The reaction was initiated by addition of 1 unit of ALDH. Dyes were excited at 590 nm, and fluorescence was measured continuously at 610 nm.

Cc1cc(C=O)c(F)c(F)c1C1=C2C=CC(=O)C=C2[Si](C)(C)c2cc(O)ccc21
selectivity ALDH1A1 versus ALDH1A3: selective for ALDH1A1 over ALDH1A3
Enzyme Activity 1A3 (Table 2): Low
